Source: PMC11421016, “Biotransformation and Epithelial Toxicity of Prenylated Phenolics from Licorice Roots (Glycyrrhiza spp.) in 3D Apical-Out Mucus-Producing Human Enteroids” (Journal of Agricultural and Food Chemistry, 2024)
Read-outs that look alike come from different tables or passages of the source.

Experiments:
[1] = test system: human ileal apical-in enteroids; assay: Cytotoxicity by LDH leakage assay in apical-in enteroids; format: cell-based; details: 4 h, cutoff 25% vs negative control
Experimental: (§1) Cytotoxicity and effects on cell viability after exposure to glab, licoA, and glycy in apical-out and apical-in enteroids (6.25–500 μg mL^–1) and proliferating Caco-2 cells (3.13–100 μg mL^–1) were determined by LDH leakage (Section 2.6.1) and WST-1 assays (Section 2.6.2), respectively. For this, stock solutions of 50 mg mL^–1 of glab, licoA, and glycy in DMSO were used. […] An overview of the experimental conditions for the exposure experiments with glab, licoA, and glycy is shown in Table S2 (Supporting Information). In brief, apical-out and apical-in enteroids were grown for 7–10 days in OGM (∼200 enteroids per dome), after which the medium was changed to ODM (supplemented with 5 μM DAPT) to initiate enteroid differentiation. To generate apical-out enteroids, MG was removed from apical-in enteroids in OGM at day 7–10, as described in Section 2.3, and suspended in supplemented ODM. After 3 days in ODM, the effects on cytotoxicity and cell viability of glab, licoA, and glycy in apical-out and apical-in enteroids (passages between 3 and 17) were assessed after 4 and 24 h of incubation. For apical-out enteroids in a suspension, enteroids were pelleted by centrifugation (2 min, 200g, RT), after which the ODM was removed and 500 μL of the experimental agent was added. […] Caco-2 cells were grown for 48 h after seeding before experiments (passages 14–19) with proliferating cells and for 21 days after seeding (passages 14–33) with differentiated cells.[17] The medium (DMEM supplemented with FCS) was changed every 2 days. For exposure experiments, Caco-2 cells were incubated with glab, licoA, and glycy in DMEM without FCS, as FCS serves as an exogenous source of LDH.[22]
(§2) Cytotoxic effects of glab, licoA, and glycy were assessed by measuring leakage of intracellular lactate dehydrogenase (LDH) in the supernatant and analyzed using an LDH cytotoxicity detection kit (Roche Applied Science, Almere, The Netherlands), according to the manufacturer’s instructions. The LDH activity in the supernatant was expressed as the percentage of the maximum releasable LDH in enteroids or Caco-2 cells (enteroids or Caco-2 cells treated with 1% (v/v) Triton X-100) and calculated with eq 1. [drawing 1] 1 in which exp. value is the UV absorbance at 492 nm (Tecan Spark or Tecan Infinite 200 Pro, Tecan Group Ltd., Zürich, Switzerland), background control is the medium with corresponding concentration of glab, licoA, or glycy, and high control is the maximum releasable LDH in enteroids or Caco-2 cells. For enteroids, each well was used as its own positive control by taking the total releasable LDH of each well after incubation.

[2] = test system: human ileal apical-out enteroids; assay: Cytotoxicity by LDH leakage assay in apical-out enteroids; format: cell-based; details: human
Experimental: as §1, §2

[3] = test system: mouse jejunal apical-in enteroids; set-up: method as in PMID 38086658; details: jejunum, cutoff 25%; cited from earlier work
[4] = test system: human ileal apical-out enteroids; details: 12.5 μg mL^–1 (34–39 μM), 4 h exposure
Experimental: Effects on barrier integrity of apical-out enteroids after glab, licoA, and glycy exposure were evaluated with a dextran diffusion assay, adapted from Co et al.[14] […] Enteroids were allowed to settle by gravity (5 min) into a pellet, the FITC-dextran 4 kDa was aspirated, and enteroids were washed with DMEM/F12 (3 min, 250g, RT). Enteroids were suspended in fresh DMEM/F12, and they were imaged with an EVOS FL Auto 2 cell imaging system. Images were analyzed using ImageJ software (version 1.52).

[5] = Stability in the medium without enteroids; format: physicochemical; details: after 24 h of incubation
Experimental: (§3) Quantification of glab, licoA, glycy, and produced metabolites was based on UV absorbance at 280 nm (glab), 340–390 nm (licoA), and 320–370 nm (glycy). For this, a seven-point calibration (0.01–150 μg mL^–1) curve based on external standards of glab, licoA, and glycy (R^2 > 0.999) was used. UV peaks were integrated using the AVALON integration algorithm with the autocalc function (Xcalibur 4.1). Metabolites were quantified as glab, licoA, or glycy equivalents.

[6] = test system: Caco-2 cells; assay: Cytotoxicity by LDH leakage assay in Caco-2 cells; format: cell-based, human; details: proliferating and differentiated Caco-2 cells (differentiated: ref 17), cutoff 25%
Experimental: The human colon adenocarcinoma cell line (Caco-2) was obtained from the American Type Culture Collection (ATCC; Manassas, VA, USA). Caco-2 cells were cultured in DMEM, in a humidified atmosphere of 5% CO2 at 37 °C until 80–90% confluency was reached. Effects on the cytotoxicity and cell viability (Section 2.6) were assessed in proliferating and differentiated Caco-2 cells. The effects on differentiated Caco-2 cells were recently described in our publication.[17] Proliferating and differentiated Caco-2 cells were seeded into 96-well plates at a density of 15,000 cells per cm^2.
Cytotoxicity and effects on cell viability after exposure to glab, licoA, and glycy in apical-out and apical-in enteroids (6.25–500 μg mL^–1) and proliferating Caco-2 cells (3.13–100 μg mL^–1) were determined by LDH leakage (Section 2.6.1) and WST-1 assays (Section 2.6.2), respectively. For this, stock solutions of 50 mg mL^–1 of glab, licoA, and glycy in DMSO were used. […] After 3 days in ODM, the effects on cytotoxicity and cell viability of glab, licoA, and glycy in apical-out and apical-in enteroids (passages between 3 and 17) were assessed after 4 and 24 h of incubation. […]
as §2, with “[drawing 1]” left out, “For enteroids, each well was used as its own positive control by taking the total releasable LDH of each well after incubation.” left out

[7] = test system: human ileal apical-in enteroids; assay: Cell viability by WST-1 assay in apical-in enteroids; format: cell-based; details: 4 h
Experimental: Cytotoxicity and effects on cell viability after exposure to glab, licoA, and glycy in apical-out and apical-in enteroids (6.25–500 μg mL^–1) and proliferating Caco-2 cells (3.13–100 μg mL^–1) were determined by LDH leakage (Section 2.6.1) and WST-1 assays (Section 2.6.2), respectively. For this, stock solutions of 50 mg mL^–1 of glab, licoA, and glycy in DMSO were used. […] An overview of the experimental conditions for the exposure experiments with glab, licoA, and glycy is shown in Table S2 (Supporting Information). […] After 3 days in ODM, the effects on cytotoxicity and cell viability of glab, licoA, and glycy in apical-out and apical-in enteroids (passages between 3 and 17) were assessed after 4 and 24 h of incubation. […]
Effects on cell viability after stimulation by glab, licoA, and glycy were assessed by measuring cleavage of the tetrazolium salt WST-1 to formazan catalyzed by cellular mitochondrial dehydrogenases and analyzed using a WST-1 cell viability kit (PromoKine, Heidelberg, Germany), according to the manufacturer’s instructions. Cell viability was expressed as the percentage of the control cells (enteroids or Caco-2 cells grown in a medium) and was calculated with eq 2. […]
For apical-in enteroids, the cleavage of WST-1 to formazan was assessed in the MG. […]

[8] = test system: human apical-out ileal enteroids; assay: Biotransformation in apical-out ileal enteroids (RP-UHPLC-PDA-MSn); format: in vitro ADME; details: for sulfation (LC-MS analysis): human ileal apical-out and apical-in enteroids; for biotransformation products formed: released on the apical side; for phase I biotransformation products: up to 24 h incubation
Experimental: (§4) Biotransformation of glab, licoA, and glycy in apical-out and apical-in enteroids was evaluated after 0, 4, and 24 h of incubation. For this, apical-out enteroids were stimulated with 50 μg mL^–1 (154 μM) glab, or with 100 μg mL^–1 licoA (296 μM), or 100 μg mL^–1 glycy (272 μM), and apical-in enteroids were stimulated with 50 μg mL^–1 glab (154 μM), 50 μg mL^–1 licoA (148 μM), or 50 μg mL^–1 glycy (136 μM). […] For apical-out enteroids, parent compounds and their transformation products were assessed on the enteroids’ apical (facing the medium) and basolateral side (inside the enteroids) and intracellularly. In apical-in enteroids, parent compounds and metabolites were assessed on the basolateral side (facing the medium). For the apical release, apical-out enteroids were pelleted (250g, 3 min, 4 °C), and the supernatant was used for LC-MS analysis, after which the enteroids were washed with PBS. Enteroids in a suspension in fresh PBS were broken up by vigorously pipetting up and down approximately for 20 times, after which enteroids were pelleted and the supernatant was used to determine basolateral release by using LC-MS. Enteroids were washed with PBS, and the enteroids’ cells in fresh PBS were disrupted on ice with a digital sonifier (Branson Ultrasonics Corporation, Danbury, CT, USA) with the following settings: a 5 s pulse, a 10 s pause, an amplitude of 55%, and 12 cycles. Enteroids were pelleted, and the supernatant was used as a measure for intracellular release and measured with LC-MS.
(§5) Samples were separated on a Thermo Vanquish UHPLC system (Thermo Scientific, San Jose, CA, USA) equipped with a pump, a degasser, an autosampler, and a PDA detector, as described elsewhere.[15] Eluents used were (A) LC-MS-grade MQ + 0.1% FA (v/v) and (B) LC-MS-grade ACN + 0.1% FA (v/v). The elution program was started by running isocratically at 1% B for 1.09 min followed by a 1.09–26.16 min linear gradient to 70% B, a 26.16–27.25 min linear gradient to 100% B, and 27.25–32.70 min isocratically at 100% B. The eluent was adjusted to start conditions in 1.09 min followed by equilibration of 5.45 min.
(§6) Mass spectrometric data were acquired using an LTQ Velos Pro linear ion trap mass spectrometer (Thermo Scientific), equipped with a heated ESI probe coupled in-line to the Vanquish UHPLC system, as described elsewhere.[15] Data were processed using Xcalibur 4.1 (Thermo Scientific).
as §3

[9] = Cell viability by WST-1 assay in apical-out enteroids; format: cell-based, human; details: human
Experimental: as §1
Effects on cell viability after stimulation by glab, licoA, and glycy were assessed by measuring cleavage of the tetrazolium salt WST-1 to formazan catalyzed by cellular mitochondrial dehydrogenases and analyzed using a WST-1 cell viability kit (PromoKine, Heidelberg, Germany), according to the manufacturer’s instructions. Cell viability was expressed as the percentage of the control cells (enteroids or Caco-2 cells grown in a medium) and was calculated with eq 2. [drawing 2] 2 in which exp. value is the UV absorbance at 450 nm (Tecan Spark or Tecan Infinite 200 Pro) and low control is the spontaneous cleavage of WST-1 to formazan by mitochondrial dehydrogenases in untreated enteroids or Caco-2 cells.

[10] = test system: mouse jejunal apical-out enteroids; set-up: method as in PMID 38086658; details: jejunum, cutoff 25%; cited from earlier work
[11] = test system: mouse jejunal apical-out enteroids; set-up: method as in PMID 38086658; details: jejunum, cutoff 25%; cited from earlier work; remark: listed apart in the source
[12] = test system: Gram-positive bacteria; set-up: method as in PMID 36377761; details: against Gram-positive bacteria, cited from earlier work
[13] = test system: human CYP enzymes (i.e., CYP3A4); set-up: method as in PMID 17220245, PMID 28774812, PMID 12019199, PMID 26100226; details: cited from earlier work
[14] = test system: human apical-in ileal enteroids; assay: Biotransformation in apical-in ileal enteroids (RP-UHPLC-PDA-MSn); format: in vitro ADME; details: for biotransformation products formed: identified at the basolateral side; for phase I metabolites: up to 24 h incubation
Experimental: as §4, §5, §6, §3

Row | SMILES | fold higher concentration for significant cytotoxicity in apical-out vs apical-in enteroids [2] | epithelial barrier (membrane) integrity [4] | recovery in the medium (without enteroids) [5] | highest nontoxic concentration (LDH) [6] | sulfation (LC-MS analysis) [8] | biotransformation products formed [8] | phase I biotransformation products [8] | viability at 4 h, 500 μg mL^–1 [9] | minimum inhibitory concentration (MIC) [12] | minimum inhibitory concentration (MIC) ([12]; equivalent of 12.5 μg mL^–1) | inhibition of human CYP enzymes (i.e., CYP3A4) [13] | biotransformation products formed [14] | phase I metabolites [14] | further results
1 | CC1(C)C=Cc2c(ccc3c2OC[C@@H](c2ccc(O)cc2O)C3)O1 [glabridin] | 3-5 fold | did not seem to disrupt | 101 ± 2.2% | around 75 μM | did not reveal sulfation | glucuronide metabolites | No phase I biotransformation products | 21 ± 14% | 12.5 μg mL^–1 | 39 µM | inhibition | transformed to their glucuronides | no phase I metabolites were identified | highest nontoxic concentration (LDH) ([1]; listed as Glabridin): 100 μg mL^–1; highest nontoxic concentration (LDH) ([1]; listed as glab): around 300 μM; highest noncytotoxic concentration [3]: 75 μg mL^–1; highest nonreducing viability concentration (WST-1) [7]: 100 μg mL^–1; viability at 4 h, 771 µM [9]: 29%; highest nonreducing viability concentration [10]: 50 μg mL^–1; highest noncytotoxic concentration [11]: 250 μg mL^–1
2 | COc1c(CC=C(C)C)c(O)cc2oc(=O)c(-c3ccc(O)cc3O)cc12 [glycycoumarin] | 3-5 fold | did not seem to disrupt | 101 ± 3.0% | around 75 μM | did not reveal sulfation | glucuronide metabolites | No phase I biotransformation products | 77 ± 13% | 12.5 μg mL^–1 | 34 µM | inhibition | transformed to their glucuronides | no phase I metabolites were identified | highest nontoxic concentration (LDH) [1]: around 300 μM; cytotoxicity (LDH) ([2]; 4 h, 500 μg mL^–1): −2 ± 2%
